The source of these data is patent publication US20230131339A1, “EPI-X4 BASED PEPTIDES AND DERIVATIVES THEREOF” (Universitaet Ulm, priority 2020, published 2023).

In data set [1] the test system is CXCL12-induced AKT signaling. Kind of data set: ERK/AKT signaling assay in SupT1 cells: AKT phosphorylation. The class given is cell-based. The method in brief: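 SupT1 cells in 1% FCS medium preincubated 15 min at 37 °C with compound, then stimulated 2 min with CXCL12 (100 ng/ml final). PFA-fixed, methanol-permeabilized cells stained for phospho-ERK1/2 (Tyr204/Tyr187) or phospho-AKT (Ser473) and read by flow cytometry; two or three independent experiments in triplicate.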

In data set [2] the test system is CXCL12-induced ERK phosphorylation of CXCR4 mutant WM cells. Kind of data set: CXCL12-induced ERK phosphorylation of CXCR4 mutant WM cells. The class given is cell-based. The text has this: (§1) Experimental data support the efficiency of the claimed peptide derivatives against the diseases mentioned above. At the example of JM #21 (SEQ ID NO.: 23) it could be shown that the peptides counteract growth and migration in vitro and in vivo of Acute Myeloid Leukemia (AML) cells as well as primary patient material and Waldenström's Macroglobulinemia (WM) cells harboring different WHIM-like CXCR4 mutations. This was accompanied by intrinsic changes suppressing oncogenic MAP kinase signaling of AML and WM cells.

A further data set deals with CD34+ normal cells. Kind of data set: Engraftment of CD34+ normal cells. The following applies: in vivo.
Text: as §1

In the next data set the target is T1, CXCR4 (Homo sapiens, UniProt P61073).
T1 construct: endogenous in cells; host or cells: SupT1 cells
T1 sequence (P61073 whole entry): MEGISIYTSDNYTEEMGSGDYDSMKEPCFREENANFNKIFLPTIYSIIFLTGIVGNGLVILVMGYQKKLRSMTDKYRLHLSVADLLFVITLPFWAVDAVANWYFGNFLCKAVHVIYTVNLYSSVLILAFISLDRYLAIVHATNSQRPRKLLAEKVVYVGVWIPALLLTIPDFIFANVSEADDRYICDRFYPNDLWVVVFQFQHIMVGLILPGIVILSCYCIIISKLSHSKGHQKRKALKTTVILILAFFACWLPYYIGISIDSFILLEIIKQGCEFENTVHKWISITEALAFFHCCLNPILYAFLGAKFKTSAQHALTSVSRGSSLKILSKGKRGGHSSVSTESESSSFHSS
In words: Antibody competition assay (12G5-assay) on SupT1 cells. Format: binding. On the procedure:
Second, the activity was tested by an antibody competition assay (FIG. 2). Values determined by the competition assay represent the potency of a compound to compete with an antibody that specifically binds to the binding pocket (ECL2) of CXCR4. […] To the right of the diagrams, an assignment of the curves to the tested peptides is explained. […] Three independent experiments were carried out for each peptide in each assay. The error bars refer to the standard deviation.
Antibody competition assay. Competition of compounds with antibody binding was performed on SupT1 cells. For that cells were washed in PBS containing 1% FCS and 50,000 cells were then seeded per well in a 96 V-well plate. Buffer was removed and plates were precooled at 4° C. Compounds were diluted in PBS and antibody (clone 12G5, APC labelled) was diluted in PBS containing 1% FCS. The antibody was used at a concentration closed to its determined Kd. 15 μl compounds were then added to the cells and 15 μl antibody immediately afterwards. Plates were incubated at 4° C. in the dark for 2 hours. Afterwards cells were washed twice with PBS containing 1% FCS and fixed with 2% PFA. Antibody binding was analyzed by flow cytometry (FACS CytoFLEX; Beckman Coulter®).

Data set [3] can be described thus: Functional stability assay in human plasma. The following applies: human plasma, 2 hours. In outline: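 EPI-X4 derivatives at 20 μM final in pooled human plasma or whole blood (EDTA), incubated at 37 °C with shaking for 2 or 8 h. Residual activity was measured by 12G5-APC antibody competition on CXCR4 and compared with a non-incubated t=0 sample. Blood samples were centrifuged to remove cells before the competition assay.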

Data set [4] concerns CXCL12 induced Ca2+-signalling. In words: Ca++ signaling in BCR-ABL-transformed murine bone marrow cells. The class given is cell-based. The following applies: 1 μM. As for the experimental part: Fifth, it was shown that the peptide derivatives inhibit calcium-signaling. CXCL12 stimulation of CXCR4 expressing B-cells leads to a strong calcium-release. In the presence of CXCR4 antagonists this response is reduced.
For calcium measurement, 1×10^6 BCR-ABL-transformed murine bone marrow cells were incubated with 5 μg/mL of Indo-1 (Molecular Probes) and 0.5 μg/mL of pluronic F-127 (Molecular Probes) in Iscove's medium supplemented with 1% FCS (Pan Biotech) at 37° C. for 45 min. Cells were then washed by centrifugation and the cell pellets were resuspended in Iscove's medium with 1% FCS and treated with the EPI-X4 derivatives (1 μM or 0.5 μM) for 10 minutes at room temperature. Cells were pre-warmed for 5 minutes at 37° C. Calcium flux was assessed by FACS measurement at BD LSR Fortessa. After 30 seconds of baseline recording, CXCR4-dependent calcium signaling was determined by stimulating with 100 ng/ml of mouse SDF-1a (PeproTech).

The subject of data set [5] is primary CXCR4 AML patient samples. In words: Engraftment of primary AML patient samples in NSG mice. Format: in vivo.
Text: as §1

A further data set deals with AML cells. Kind of data set: Migration of AML cells along a CXCL12 gradient. Format: cell-based.
Text: as §1

A further data set has as its system WM cells. In words: Migration of WM cells along a CXCL12 gradient. The note with it: with or without S338X mutation. Format: cell-based.
Text: as §1

In the case of `CC[C@H](C)[C@H](N)C(=O)N[C@@H](CC(C)C)C(=O)N[C@@H](CCCNC(=N)N)C(=O)N[C@@H](Cc1c[nH]c2ccccc12)C(=O)N[C@@H](CO)C(=O)N[C@@H](CCCNC(=N)N)C(=O)N[C@@H](CCCCN)C(=O)N[C@@H](CC(C)C)C(=O)N1CCC[C@H]1C(=O)N[C@@H](CS)C(=O)N[C@H](C(=O)N[C@@H](CO)C(=O)O)C(C)C` [JM #21], the figures for the “reduction of CXCL12-induced AKT signaling” value in [1] (1 μM) and in data set [1] (10 μM) were “about 50%” and “about 85%”, respectively. Moreover, the “blocking of CXCL12 induced signaling (in words)” value in data set [1] (AKT and ERK) is listed as “blocked signaling more effectively than WSC02”. In data set [1] (compared to WSC02), the “fold effectiveness in blocking AKT signaling relative to WSC02” value is reported as “about 10 fold”. Besides, the “CXCL12-induced ERK phosphorylation of CXCR4 mutant WM cells” value in data set [2] is “reduced CXCL12-induced ERK phosphorylation of CXCR4 mutant WM cells in a dose-dependent manner”. Further, in the data set on CD34+ normal cells, the “engraftment potential of CD34+ normal cells” value is recorded as “no inhibiting effect on the engraftment potential of CD34+ normal cells”. In addition, on CXCR4, the “antibody competition / binding to CXCR4 (in words)” value is on record as “more effective antibody competition”. Also, in data set [3], the “remaining (relative) activity after 2 hours of plasma incubation” value was “completely inactive”. Further, in data set [4], the “reduction of CXCL12 induced calcium-signaling” value is given as “much stronger than the reduction seen for WSC02”. Besides, the “engraftment potential of primary CXCR4 AML patient samples” value in data set [5] is “reduced engraftment potential of primary CXCR4 AML patient samples in NSG mice”. Further, the “migration of AML cells along a CXCL12 gradient” value in the data set with AML cells was “inhibited migration of AML cells along a CXCL12 gradient”. For the same compound, the “migration of WM cells along a CXCL12 gradient” value in the data set on WM cells is “impaired migration of WM cells with or without S338X mutation along a CXCL12 gradient”.
